Measured values published in patent publication US20240277829A1, “HIV-1 VACCINATION AND SAMT-247 MICROBICIDE TO PREVENT HIV-1 INFECTION” (priority 2021, published 2024).
“Also recorded” adds a separate entry of the source.

Test system: mucosal Th1 and Th2 cells
Test: Frequencies and cytokine levels of macaque rectal mucosal T cells following SAMT-247 and PMA stimulation
Assay type: cell-based
Excerpt: Additionally, rectal tissue from 9 macaques was used for an in vitro study. The age-matched macaques from this separate study (P204) included 4 animals vaccinated against HIV and 5 naïve animals, all challenged with SHIV. Rectal tissue was obtained post challenge from 7 infected and 2 uninfected animals for the P204 study analysis. Extra cells were available from that collection and were used here for the in vitro study.
Frequencies and cytokine levels of macaque rectal mucosal NK cells and T cells following SAMT-247 and PMA stimulation. NK/ILC and T cell frequencies and cytokine levels were measured in macaque rectal mucosa. Freshly collected rectal biopsies were processed to single cells and cultured in R10 in the presence/or absence of SAMT-247 and/or PMA for 12 hours. Subsequently, cells were stained for live cells with Live/Dead Blue dye (cat. #L34962, 0.5 μl) from Thermofisher; followed by surface staining with the following: BUV737 anti-CD3 (SP34-2; cat. #741872, 5 μl), BV711 anti-CD4 (L200; cat. #563913, 5 μl), BV650 anti-NKp44 (P44-8; cat. #744302, 5 μl), Alexa700 anti-CD20 (2H7; cat. #560631, 5 μl), BV786 anti-CD45 (D058-1283; cat. #563861, 5 μl) from BD Biosciences; APC-H7 anti-CD11b (ICRF44; cat. #47-0118-42, 5 μl), PE-Cy5 anti-CD95 (ICRF44; cat. #15-0959-42, 5 μl) from eBioscience; BV570 anti-CD8 (RPA-T8; cat. #301038, 5 μl), BV605 anti-CCR6 (G034E3; cat. #353420, 5 μl), APC anti-CXCR3 (G025H7; cat. #353708, 5 μl), from Biolegend and PE-Cy7 anti-NKG2A (Z199; cat. #B10246, 5 μl) from Beckman coulter for 30 minutes at room temperature. This was followed by permeabilization with a FOX3-transcription buffer set (cat. #00-5523-00) from eBioscience according to the manufacture's recommendation and subsequently intracellular staining with the following: BV750 anti-TNF-α (MAB11; cat. #566359, 5 μl), BUV395 anti-IFN-γ (B27; cat. #563563, 5 μl), BV510 anti-GranB (GB11; cat. #563388, 5 μl), BV421 anti-IL-10 (JES3-9D7; cat. #564053, 5 μl) from BD Biosciences; PE-Cy5.5 anti-IL-17 (BL168; cat. #512314, 5 μl) from Biolegend; and FITC anti-Perforin (pf-344; cat. #3465-7, 5 μl) from MABTECH for 30 minutes at room temperature. Flow cytometry acquisitions were performed on a FACSymphony A5 and examined using FACSDiva software (BD Biosciences).

CCCCCCCCCCCCCC(=O)O[C@@H]1[C@@H](C)[C@@]2(O)[C@@H](C=C(CO)C[C@]3(O)C(=O)C(C)=C[C@@H]23)[C@@H]2C(C)(C)[C@]12OC(C)=O [PMA]
overall mucosal Th1 and Th2 cell frequencies (PMA stimulation): did not change | Cytokines, Unstim vs PMA Stimulation (mucosal Th1): >TNF-α; also recorded: >IL-10; also recorded: >IFN-γ | Cytokines, Unstim vs PMA Stimulation (mucosal Th2): >IFN-γ; also recorded: >TNF-α; also recorded: >IL-10
